In one data set the test system is AKT. On the set-up: method as in BinidngDB. To be noted: inhibitor of PDB ID 4GV1; ref BinidngDB; cited from earlier work.
In data set [1] the test system is EGFR. Further details: method as in BinidngDB. The settings on record: inhibitor of PDB ID 5UGB; ref BinidngDB; cited from earlier work.
Another data set concerns Nrf2. Put plainly: Transcription factor ELISA, Nrf2 binding to DNA. The data set is classed as cell-based. On the procedure: (§1) To estimate NF-ΚB (p50 and p65 subunits) STAT3 and Nrf2 activation, enzymatic immunoassays with the Transcription Factor ELISA Kit (TransAM™NF-κB, TransAM™STAT3/TransAM™Nrf2, Active Motif, Carlsbad CA, USA) were used following the manufacturer’s protocol. Briefly, proper consensus-site double-strand oligonucleotides (NF-κB—5′-GGGACTTTCC-3′; STAT3-5’—TTCCCGGAA-3’; Nrf2-5ʹ—[…]-3ʹ) were immobilized on an ELISA plate and incubated for one hour with the nuclear extracts. The activated subunits bound to DNA were recognized with a specific primary antibody and detected with an HRP-conjugated secondary antibody. The number of subunits was determined by spectrophotometry at λ = 450 nm. The number of p50, and p65 subunits, STAT3, as well as the amount of Nrf2 contained in the DNA-binding complex, corresponded to the activated NF-κB, STAT3, or Nrf2 transcription factors.

The subject of another data set is HCT116 cells. Put plainly: MTT viability assay, HCT116 cells. The data set is classed as cell-based. To be noted: Homo sapiens, HCT-116, range 0.5–100 µM, read-out: IC50, cytotoxicity. On the procedure: (§2) The DLD-1 and HCT116 colorectal carcinoma cell lines were purchased from ECACC. The HaCaT cell line of spontaneously immortalized keratinocytes was purchased from Cell Lines Service (Germany). The cells were cultured in Dulbecco’s Modified Eagle’s Medium (DMEM, Sigma-Aldrich, USA) with the addition of 10% FBS (EURx, Poland) and 1% antibiotic solution (penicillin and streptomycin) (Sigma-Aldrich, USA) at 37 °C in an atmosphere with 95% humidity and 5% CO2.
(§3) The effect of the tested compounds on the viability of DLD-1, HCT116 and HaCaT cells was assessed by the MTT assay according to the standard protocol.

Data set [2] can be described thus: MTT viability assay, normal HaCaT cells. To be noted: HaCaT cells (spontaneously immortalized keratinocytes), normal human HaCaT cells, read-out: IC50, cytotoxicity. Type of data set: cell-based. How it is done:
as §2, §3

Data set [3] deals with NF-κB p65. Put plainly: Transcription factor ELISA, NF-κB p65 binding to DNA. To be noted: DLD-1 cells (context); 1, 4 at 1 μM; 2, 8 at 5 μM; vs control. Type of data set: cell-based. How it is done:
as §1

For a further data set, the system named is DLD-1 cells. The experiment in a line: MTT viability assay, DLD-1 cells. Type of data set: cell-based. To be noted: Homo sapiens, range 0.5–100 µM, read-out: IC50, cytotoxicity. How it is done: as §2, §3
Data set [4] relates to EGFR. The experiment in a line: Western blot, EGFR protein in cytosolic fraction. The data set is classed as cell-based. The settings on record: DLD-1 cells; 2, 5 at 5 μM, 4 at 1 μM. How it is done: (§4) Cytosolic and nuclear extracts were prepared using a Nuclear/Cytosol Fractionation Kit (BioVision Research, USA). Cytosolic extracts (for NF-κBp65, NF-κBp50, COX-2, iNOS, STAT3, c-Myc, Bcl-xl, Nrf2, SOD, GSTP, EGFR, Akt, p-Akt, Keap1, IKKα/β and β-actin) or nuclear extracts (for NF-κBp65, NF-κBp50, STAT3, p-STAT3, Nrf2, p-Nrf2 and lamin) were separated on 7.5%, 10% or 12% SDS–PAGE slab gels. Then, the proteins were transferred to a nitrocellulose Immobilon-P membrane. After blocking for 2 h with 10% skimmed milk, proteins were incubated with primary antibodies against NF-κBp65, NF-κBp50, COX-2, iNOS, STAT3, p-STAT3, c-Myc, Bcl-xl, Nrf2, p-Nrf2, SOD, GSTP, EGFR, Akt, p-Akt, Keap1, IKKα/β, β-actin, and lamin. Alkaline phosphatase (AP)-labeled anti-rabbit IgG, anti-goat IgG, and anti-mouse IgG secondary antibodies (Bio-Rad Laboratories, USA), as well as horseradish peroxidase (HRP)-conjugated anti-mouse IgG (Boster Bio, USA) secondary antibodies were used in the staining reaction. Bands were visualized by the AP Conjugate Substrate Kit NBT/BCIP or the chemiluminescent HRP substrate of the Clarity ECL Kit (Bio–Rad Laboratories, USA). The amount of immunoreactive product in each lane was determined using a ChemiDoc Imaging System (Bio–Rad Laboratories, USA). Values were calculated as relative absorbance units (RQ) per mg of protein and expressed as a percentage of the control.

Data set [5] deals with STAT3. The experiment in a line: qRT-PCR, STAT3 mRNA. Type of data set: cell-based. The settings on record: DLD-1 cells; 2, 5 at 5 μM, 4 at 1 μM. On the procedure:
(§5) Total RNA from cells was isolated with the GeneMatrix Universal DNA/RNA/Protein Purification Kit (EurX, Poland). For the qRT-PCR analyses, the Maxima SYBR Green I/ROX qPCR Master Mix (2×) (Thermo Fisher Scientific, USA) and the thermal cycler LightCycler (Roche, Germany) were used. The protocol started with 5 min of enzyme activation at 95 °C, followed by 40–50 cycles at 95 °C for 15 s, 56 °C for 20 s, 72 °C for 40 s, and final elongation at 72 °C for 5 min. Melting curve analysis was used for amplicon verification. The expression levels of TATA-box-binding protein (TBP) and porphobilinogen deaminase (PBGD) were used to normalize the data. The Pfaffl comparative method was used to calculate fold change. Primers were designed using Beacon Designer software (the sequences of primers used to analyze genes are listed in Table 2 of the supplementary materials).

A further data set concerns COX-2. Put plainly: COX-2 expression (qRT-PCR mRNA, Western blot protein). The data set is classed as cell-based. The settings on record: 4 at 1 μM; for COX-2 transcription: DLD-1 cells, 3, 6 at 5 μM. On the procedure: as §4, §5
Another data set relates to c-Myc. Put plainly: c-Myc expression (qRT-PCR mRNA, Western blot protein). To be noted: DLD-1 cells; 2 at 5 μM. The data set is classed as cell-based. How it is done: as §4, with “control. […]” for “control.”
Another data set deals with p-Akt. The experiment in a line: Western blot, p-Akt (Ser 473) protein in cytosolic fraction. To be noted: 2, 5 at 5 μM, 4 at 1 μM. Type of data set: cell-based. How it is done:
as §4

A further data set relates to Bcl-xl. The experiment in a line: Bcl-xl expression (qRT-PCR mRNA, Western blot protein). The settings on record: DLD-1 cells; 2 at 5 μM. Type of data set: cell-based. How it is done: as §4, §5
The subject of data set [6] is NF-κB p65. The experiment in a line: qRT-PCR, NF-κB p65 mRNA. Type of data set: cell-based. To be noted: for inhibitory effect on p65 subunit transcription: DLD-1 cells, 5 μM. How it is done: as §5
The test system of data set [7] is STAT3. The experiment in a line: Western blot, STAT3 protein level. Type of data set: cell-based. The settings on record: DLD-1 cells; 2 at 5 μM, 4 at 1 μM. On the procedure:
as §4

Data set [8] deals with STAT3. The experiment in a line: Transcription factor ELISA, STAT3 binding to DNA. The settings on record: 2, 5 at 5 μM, 4 at 1 μM. Type of data set: cell-based. On the procedure:
as §1

The test system of a further data set is p-Nrf2. The experiment in a line: Western blot, p-Nrf2 protein in nuclear fraction. Type of data set: cell-based. To be noted: HCT116 line; 5 μM. How it is done:
as §4

For another data set, the system named is SOD. The experiment in a line: SOD expression (qRT-PCR mRNA, Western blot protein). The data set is classed as cell-based. The settings on record: HCT116 cells; 5 μM. On the procedure: as §4
as §5, with “Primers were designed using Beacon Designer software (the sequences of primers used to analyze genes are listed in Table 2 of the supplementary materials).” left out

The test system of another data set is NF-κB p50. The experiment in a line: Transcription factor ELISA, NF-κB p50 binding to DNA. The settings on record: DLD-1 cells; 1, 4 at 1 μM; 2, 3, 5-8 at 5 μM; in relation to the control group. The data set is classed as cell-based. On the procedure:
as §1

Where [9] appears, read: DLD-1 cells, 1 at 1 μM, 3, 5, 7, 8 at 5 μM.
Where [10] appears, read: HCT116 cells, 4 at 1 μM, 2, 5, 6, 7 at 5 μM.

The structures appear in SMILES notation.

As for `NC1(C(=O)N[C@@H](CCO)c2ccc(Cl)cc2)CCN(c2ncnc3[nH]ccc23)CC1` [AZD5363], the IC50 with AKT was 0.0042 µM.
In the case of `C=CC(=O)N[C@@H]1CN(c2nc(Nc3cn(C)nc3OC)c3ncn(C)c3n2)C[C@H]1F` [PF-06747775], in the data set with EGFR [1], the IC50 was […].
Regarding `COc1ccc(/C=C/C(=O)c2cc(OC)c(OC)c(OC)c2)cc1SC` [chalcone 1], the “Nrf2 binding to a specific nucleotide sequence (ELISA)” value (shortened to “Nrf2 binding”) with Nrf2 (setting [9]) is on record as “statistically significant increase”. Moreover, the values for the IC50 (in the data set on HCT116 cells; in data set [2]; with DLD-1 cells) were 19 µM, 4 µM and 3 µM, respectively. In addition, the “reduction of the binding of the p65 subunit to DNA” value (“reduction” for short) in the data set on NF-κB p65 [3] was 21%.
For the molecule `COc1cc(/C=C/C(=O)c2cc(Br)c(OC)c(OC)c2)ccc1SC` [chalcone 2], the “level of EGFR” value with EGFR [4] is “significantly decreased the level of EGFR”. Moreover, the “STAT3 gene expression (mRNA)” value with STAT3 [5] is listed as “decreased”. For the same molecule, the “Nrf2 binding” value in the data set on Nrf2 (setting [10]) is “statistically significant increase”. For the same molecule, in the data set with COX-2 (HCT116 cells, 2 at 5 μM), the “COX-2 expression, protein level” value is on record as “reduction of COX-2 expression”. Also, the “COX-2 expression, transcript level” value in the data set on COX-2 (HCT116 cells, 2 at 5 μM) is “reduction of COX-2 expression”. For the same molecule, the c-Myc expression entry in the data set with c-Myc is recorded as “decreased c-Myc expression”. For the same molecule, the “phosphorylation of p-Akt (Ser 473)” value in the data set on p-Akt (DLD-1 cells) and with p-Akt (HCT116 cells) was “significantly reduced phosphorylation of p-Akt” throughout. In addition, the Bcl-xl protein level result in the data set on Bcl-xl is “reduced level of the Bcl-xl protein”. Further, the “decrease in the level of Bcl-xl mRNA” value in the data set on Bcl-xl amounted to 25%. The IC50 in the data set on HCT116 cells worked out at 18 µM; in [2] it was 13 µM; in the data set on DLD-1 cells, 11 µM. Besides, the “inhibitory effect on p65 subunit transcription” value in the data set on NF-κB p65 [6] was “most potent inhibitory effect”. Also, the “decrease in the nuclear level of STAT3 protein” value with STAT3 [7] was 22%. In addition, the “reduction” value in the data set with NF-κB p65 [3] is 24%. Further, the “binding of STAT3 to DNA” value in the data set with STAT3 [8] (HCT116 cells) was “decreased the binding of STAT3 to DNA”. Also, the “decrease in the binding of STAT3 to DNA” value in the data set with STAT3 [8] (nuclear fraction of DLD-1 cells) is reported as 25%.
For `COc1ccc(/C=C/C(=O)c2cc(Br)c(OC)c(OC)c2)cc1SC` [chalcone 3], the “Nrf2 binding” value with Nrf2 (setting [9]) is listed as “statistically significant increase”. Besides, the COX-2 transcription entry with COX-2 is recorded as “statistically significant reduction”. The 50% inhibitory concentration (IC50) with HCT116 cells is 17 µM; in [2], 9 µM; in the data set with DLD-1 cells it was 8 µM.
On to `COc1ccc(/C=C/C(=O)c2cc(Br)c(SC)c(OC)c2)cc1SC` [chalcone 6], for which the “Nrf2 binding” value with Nrf2 (setting [10]) is recorded as “statistically significant increase”. For the same molecule, the COX-2 transcription result in the data set with COX-2 was “statistically significant reduction”. Moreover, the values for the IC50 (in the data set on HCT116 cells; in data set [2]; in the data set on DLD-1 cells) were 21 µM, 13 µM and 12 µM, respectively. For the same molecule, the “increase in the nuclear level of p-Nrf2” value in the data set with p-Nrf2 is given as 52%. Moreover, the “levels of SOD mRNA and protein” value in the data set on SOD is “increased levels of SOD mRNA and protein”.
As for `COc1cc(C(=O)/C=C/c2ccc(SC)cc2)cc(Br)c1SC` [chalcone 7], the “Nrf2 binding” value with Nrf2 (setting [9]) and in the data set with Nrf2 (setting [10]) was “statistically significant increase” each time. Also, the IC50 in the data set on HCT116 cells came to 19 µM; in data set [2], 27 µM; in the data set on DLD-1 cells it was 43 µM. The “increase in the nuclear level of p-Nrf2” value with p-Nrf2 is 80%. Also, in the data set on NF-κB p65 [6], the “inhibitory effect on p65 subunit transcription” value is listed as “most potent inhibitory effect”. Further, the “decrease of p50 binding to the 5'-GGGACTTTCC-3' target sequence” value with NF-κB p50 was 41%. The “levels of SOD mRNA and protein” value in the data set on SOD is “increased levels of SOD mRNA and protein”.
Turning to `COc1ccc(/C=C/C(=O)c2cc(OC)c(SC)c(OC)c2)cc1SC` [chalcone 8], in the data set with Nrf2 (setting [9]), the “Nrf2 binding” value is given as “statistically significant increase”. In addition, the IC50 was 19 µM with HCT116 cells, 17 µM in data set [2] and 9 µM with DLD-1 cells. Further, the “decrease of p65 transcription” value in the data set on NF-κB p65 [6] (HCT116 cells, 8 at 5 μM, compared to the control group) is 30%. In addition, the “reduction” value in the data set with NF-κB p65 [3] was 38%.

Values taken from PMC9436958, “The synthesis of novel thioderivative chalcones and their influence on NF-κB, STAT3 and NRF2 signaling pathways in colorectal cancer cells” (Scientific Reports, 2022).
